According to PubChem BioAssay (NCI):
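GI50 is the concentration that inhibits growth by half. TGI: total growth inhibition.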

Assays:
Experiment in all cases: growth of human tumour cells (NCI), 384-well format
[1] = system: 786-0 renal
[2] = system: A498 renal
[3] = system: A549 NSCLC
[4] = system: ACHN renal
[5] = system: BT-549 breast
[6] = system: CAKI-1 renal
[7] = system: CCRF-CEM leukemia
[8] = system: COLO 205 colon
[9] = system: DU-145 prostate
[10] = system: HCC-2998 colon
[11] = system: HCT-116 colon
[12] = system: HCT-15 colon
[13] = system: HL-60(TB) leukemia
[14] = system: HOP-62 NSCLC
[15] = system: HOP-92 NSCLC
[16] = system: HT29 colon
[17] = system: IGROV1 ovarian
[18] = system: K-562 leukemia
[19] = system: KM12 colon
[20] = system: LOX IMVI melanoma
[21] = system: M14 melanoma
[22] = system: MALME-3M melanoma
[23] = system: MCF7 breast
[24] = system: MDA-MB-231 breast
[25] = system: MDA-MB-435 melanoma
[26] = system: MDA-MB-468 breast
[27] = system: MOLT-4 leukemia
[28] = system: NCI-H226 lung
[29] = system: NCI-H23 lung
[30] = system: NCI-H322M lung
[31] = system: NCI-H460 NSCLC
[32] = system: NCI-H522 lung
[33] = system: NCI/ADR-RES ovarian
[34] = system: OVCAR-3 ovarian
[35] = system: OVCAR-4 ovarian
[36] = system: OVCAR-5 ovarian
[37] = system: OVCAR-8 ovarian
[38] = system: PC-3 prostate
[39] = system: RPMI-8226 leukemia
[40] = system: RXF 393 renal
[41] = system: SF-268 CNS
[42] = system: SF-295 CNS
[43] = system: SF-539 CNS
[44] = system: SK-MEL-2 melanoma
[45] = system: SK-MEL-28 melanoma
[46] = system: SK-MEL-5 melanoma
[47] = system: SK-OV-3 ovarian
[48] = system: SN12C renal
[49] = system: SNB-19 CNS
[50] = system: SR leukemia
[51] = system: SW-620 colon
[52] = system: T-47D breast
[53] = system: TK-10 renal
[54] = system: U251 glioblastoma
[55] = system: UACC-257 melanoma
[56] = system: UACC-62 melanoma
[57] = system: UO-31 renal

## Cc1cc(C(=O)NC(C)(C)C)cc(C#Cc2ccc3c4c(oc3c2)C(C)(C)c2cc(NS(C)(=O)=O)ccc2C4=O)n1
[1]
  GI50: 0.642 µM
  TGI: 2.2 µM
[2]
  GI50: 0.833 µM
  TGI: 4.66 µM
[3]
  GI50: 2.27 µM
  TGI: > 100 µM
[4]
  GI50: 0.815 µM
  TGI: 8.3 µM
[5]
  GI50: 1.15 µM
  TGI: 4.82 µM
[6]
  GI50: 0.549 µM
  TGI: 4.11 µM
[7]
  GI50: 1.26 µM
  TGI: 2.83 µM
[8]
  GI50: 1.28 µM
  TGI: 3.42 µM
[9]
  GI50: 1.48 µM
  TGI: 8.91 µM
[10]
  GI50: 1.73 µM
  TGI: 8.55 µM
[11]
  GI50: 1.02 µM
  TGI: > 100 µM
[12]
  GI50: 0.862 µM
  TGI: > 100 µM
[13]
  GI50: 0.591 µM
  TGI: 1.78 µM
[14]
  GI50: 2.13 µM
  TGI: 6.76 µM
[15]
  GI50: 0.198 µM
  TGI: 0.98 µM
[16]
  GI50: 0.774 µM
  TGI: 3.06 µM
[17]
  GI50: 2.15 µM
  TGI: > 100 µM
[18]
  GI50: 1.31 µM
  TGI: > 100 µM
[19]
  TGI: 1.02 µM
[20]
  GI50: 3.2 µM
  TGI: 7.42 µM
[21]
  GI50: 1.08 µM
  TGI: 3.34 µM
[22]
  GI50: 0.695 µM
  TGI: 3.01 µM
[23]
  GI50: 0.985 µM
  TGI: 4.35 µM
[24]
  GI50: 3.45 µM
  TGI: > 100 µM
[25]
  GI50: 0.41 µM
  TGI: 2.03 µM
[26]
  GI50: 0.985 µM
  TGI: 2.85 µM
[27]
  GI50: 0.565 µM
  TGI: 1.7 µM
[28]
  GI50: 1.31 µM
  TGI: 5.41 µM
[29]
  GI50: 0.602 µM
  TGI: 2.63 µM
[30]
  GI50: 2.67 µM
  TGI: > 100 µM
[31]
  GI50: 1.18 µM
  TGI: 3.02 µM
[32]
  GI50: 0.813 µM
  TGI: 4.13 µM
[33]
  GI50: 1.59 µM
  TGI: 4.17 µM
[34]
  GI50: 1.46 µM
  TGI: 4.42 µM
[35]
  GI50: 1.34 µM
  TGI: 6.33 µM
[36]
  GI50: 2.08 µM
  TGI: 9.85 µM
[37]
  GI50: 1.81 µM
  TGI: 6.23 µM
[38]
  GI50: 2.47 µM
  TGI: 9.21 µM
[39]
  GI50: 0.168 µM
  TGI: 0.41 µM
[40]
  GI50: 0.188 µM
  TGI: 0.41 µM
[41]
  GI50: 2.17 µM
  TGI: > 100 µM
[42]
  GI50: 1.33 µM
  TGI: 3.88 µM
[43]
  GI50: 1.16 µM
  TGI: 5.93 µM
[44]
  GI50: 0.496 µM
  TGI: 3.1 µM
[45]
  GI50: 0.971 µM
  TGI: 5.51 µM
[46]
  GI50: 0.913 µM
  TGI: 2.16 µM
[47]
  GI50: 1.93 µM
  TGI: 7.04 µM
[48]
  GI50: 0.934 µM
  TGI: > 100 µM
[49]
  GI50: 2.92 µM
  TGI: > 100 µM
[50]
  GI50: 0.198 µM
  TGI: 0.42 µM
[51]
  GI50: 1.26 µM
  TGI: 3.54 µM
[52]
  GI50: 0.631 µM
  TGI: 2.27 µM
[53]
  GI50: 1.8 µM
  TGI: 29.2 µM
[54]
  GI50: 1.89 µM
  TGI: > 100 µM
[55]
  GI50: 0.977 µM
  TGI: 3.07 µM
[56]
  GI50: 0.673 µM
  TGI: 3.96 µM
[57]
  GI50: 0.365 µM
  TGI: 1.71 µM
